Where two headings read alike, the source gives them in different places.
Experiments:
[1] = system: 6 Hz (44 mA) seizures, mice; test: 6 Hz (44 mA) seizure test; type: in vivo; conditions: Mus musculus, ip, pretreatment time 0.5 h
Description: Both the aforementioned parameters (ED50 and TD50) enabled the calculation of protective indexes (PIs), which reflect the comparative the benefit–risk ratio of these experimental therapeutic agents.
Four mice per group were randomly assigned to each experimental group in the initial screening experiments (each mouse was used just once). Four groups, each with eight animals, received injections of different doses of the investigated substances in order to determine the ED50 or TD50 values. The PIs for the compounds investigated and reference ASMs were calculated by dividing the TD50 value, as determined in the chimney test by the respective ED50 value, as determined in the MES, scPTZ, or 6 Hz (32 mA or 44 mA) tests (PI = TD50/ED50). The PIs are a measure of the potential therapeutic window of the tested agent.
All substances were suspended in Tween 80 (1% aqueous solution) and administered i.p. as a single injection at a volume of 10 mL/kg. On each day of experimentation, fresh solutions were prepared.

[2] = system: formalin-induced pain, mice; test: formalin test; type: in vivo, mouse
[3] = system: capsaicin-induced pain, mice; test: capsaicin-induced pain test; type: in vivo; conditions: Mus musculus, ip, 30 min before capsaicin
[4] = system: fast voltage-gated sodium channels in rat prefrontal cortex pyramidal neurons; test: patch-clamp of fast voltage-gated sodium currents in prefrontal cortex pyramidal neurons; type: cell-based; conditions: 10 μM, control = 1.0, n = 5
Text: Figure 9 Compounds (R)-31 and (R)-32 inhibit fast voltage-gated sodium currents in prefrontal cortex pyramidal neurons. (A) Example sodium current recordings in control (black trace), after application of (R)-31 (blue trace) and after wash-out (red trace). Current traces were evoked by a rectangular voltage-step. (B) Influence of (R)-31 on sodium current is shown on an example neuron. Current traces were evoked once every 10 s. […] (C) Averaged, normalized maximal sodium current amplitudes in control, in the presence of (R)-31 and after wash-out. […] (D) Example sodium current recordings in control (black trace), after application of (R)-32 (blue trace) and after wash-out (red trace). Current traces were evoked by a rectangular voltage-step. (E) Influence of (R)-32 on sodium current is shown on an example neuron. Current traces were evoked once every 10 s. […] (F) Averaged, normalized maximal sodium current amplitudes in control, in the presence of (R)-32 and after wash-out.
Patch-clamp studies were carried out in prefrontal cortex pyramidal neurons. The methodology of slice preparation, preparation of dispersed cortical neurons, and sodium currents recording technique were the same as in our previous study.[99]

[5] = molecular target: T1, Voltage-Gated Sodium channel hNav1.3 (Homo sapiens, UniProt Q9NY46); test: human sodium ion channel cell based automated patch clamp assay, hNav1.3
T1 construct: Eurofins Discovery (St. Charles, MO, USA)
Description: (§1) Therefore, as a part of the more detailed functional characterization using automated patch clamp method, we tested the influence of (R)-32 on sodium currents mediated by several Navx channels comprising 5 different human subunits, namely, Nav1.1, Nav1.2, Nav1.3, Nav1.6, and Nav1.7, which are involved in both seizure and/or pain modulation.[74],[80],[81] As summarized in Tables S4–S8, (R)-32 starting from 10 μM effectively and in concentration-dependent manner decreased sodium currents mediated by all aforementioned sodium channel subunits. Furthermore, (R)-32 appeared to bind exclusively to sodium channels that are in an inactivated state (see pulse 2 in Tables S4–S8), but not to the channels that are in an open state (pulse 1) (for additional details, see Supporting Information).
(§2) Human sodium ion channels cell based automated patch clamp assay
(§3) Human sodium ion channels cell based automated patch clamp assays: sodium channels exist in, a) a resting or closed state at -120 mV, b) a transient open state that inactivates to c) inactivated state at -10 mV. Sodium current inhibition within 1-2 ms of channel opening at 0 mV is open channel inhibition (pulse 1). In order to completely inactivate the sodium channels and facilitate inactivated state-dependent binding of the drug, the channels were kept at […] ( -10 mV) longer (pulsed for 500 ms) and then stepped back to -120 mV for 10 ms to recover from inactivation into resting or closed state (but the channels that had drug bound to them will not recover from inactivation and will not open) before stepping to -10 mV for 50 ms (pulse 2) to mea sure sodium channels that are available to open. The higher inhibition seen at pulse 2 is due to inactivated state -dependent inhibition. Pulse 1 and 2 are used to investigate drug binding to the open state and inactivated state of the Na channels, respectively. Each concentration of compound is applied for 5 minutes. The results obtained for (R)-32 are summerized in Tables S4–S8. […]
(§4) Compound Concentration Measurement % Inhibition
(§5) Data interpretation: Results showing inhibition greater than 50% are considered to represent significant effects of test compound and have been bolded for (R)-32 for better visualization. The studies were carried out in Eurofins Discovery (St. Charles, MO, USA).

[6] = molecular target: T2, Voltage-Gated Sodium channel hNav1.6 (Homo sapiens, UniProt Q9UQD0); test: human sodium ion channel cell based automated patch clamp assay, hNav1.6
T2 construct: Eurofins Discovery (St. Charles, MO, USA)
Description: as §1, §2, §3, §4, §5

[7] = molecular target: T3, Voltage-Gated Sodium channel hNav1.7 (Homo sapiens, UniProt Q15858); test: human sodium ion channel cell based automated patch clamp assay, hNav1.7
T3 construct: Eurofins Discovery (St. Charles, MO, USA)
Description: Human sodium ion channels cell based automated patch clamp assays: sodium channels exist in, a) a resting or closed state at -120 mV, b) a transient open state that inactivates to c) inactivated state at -10 mV. Sodium current inhibition within 1-2 ms of channel opening at 0 mV is open channel inhibition (pulse 1). In order to completely inactivate the sodium channels and facilitate inactivated state-dependent binding of the drug, the channels were kept at open state ( -10 mV) longer (pulsed for 500 ms) and then stepped back to -120 mV for 10 ms to recover from inactivation into resting or closed
open) before stepping to -10 mV for 50 ms (pulse 2) to mea sure sodium channels that are available to open. […] Pulse 1 and 2 are used to investigate drug binding to the open state and inactivated state of the Na channels, respectively. Each concentration of compound is applied for 5 minutes.
Voltage-Gated Sodium channel hNav1.1

[8] = hNav1.3, Pulse 1 (open state), read-out: % Inhibition Mean
[9] = hNav1.3, Pulse 1 (open state), read-out: % Inhibition n1
[10] = hNav1.3, Pulse 1 (open state), read-out: % Inhibition n2
[11] = hNav1.3, Pulse 2 (inactivated state), read-out: % Inhibition Mean
[12] = hNav1.3, Pulse 2 (inactivated state), read-out: % Inhibition n1
[13] = hNav1.3, Pulse 2 (inactivated state), read-out: % Inhibition n2
[14] = hNav1.6, Pulse 1 (open state), read-out: % Inhibition Mean
[15] = hNav1.6, Pulse 1 (open state), read-out: % Inhibition n1
[16] = hNav1.6, Pulse 1 (open state), read-out: % Inhibition n2
[17] = hNav1.6, Pulse 2 (inactivated state), read-out: % Inhibition Mean
[18] = hNav1.6, Pulse 2 (inactivated state), read-out: % Inhibition n1
[19] = hNav1.6, Pulse 2 (inactivated state), read-out: % Inhibition n2
[20] = hNav1.7, Pulse 1 (open state), read-out: % Inhibition Mean
[21] = hNav1.7, Pulse 1 (open state), read-out: % Inhibition n1
[22] = hNav1.7, Pulse 1 (open state), read-out: % Inhibition n2
[23] = hNav1.7, Pulse 2 (inactivated state), read-out: % Inhibition Mean
[24] = hNav1.7, Pulse 2 (inactivated state), read-out: % Inhibition n1
[25] = hNav1.7, Pulse 2 (inactivated state), read-out: % Inhibition n2

T3 sequence (Q15858 whole entry): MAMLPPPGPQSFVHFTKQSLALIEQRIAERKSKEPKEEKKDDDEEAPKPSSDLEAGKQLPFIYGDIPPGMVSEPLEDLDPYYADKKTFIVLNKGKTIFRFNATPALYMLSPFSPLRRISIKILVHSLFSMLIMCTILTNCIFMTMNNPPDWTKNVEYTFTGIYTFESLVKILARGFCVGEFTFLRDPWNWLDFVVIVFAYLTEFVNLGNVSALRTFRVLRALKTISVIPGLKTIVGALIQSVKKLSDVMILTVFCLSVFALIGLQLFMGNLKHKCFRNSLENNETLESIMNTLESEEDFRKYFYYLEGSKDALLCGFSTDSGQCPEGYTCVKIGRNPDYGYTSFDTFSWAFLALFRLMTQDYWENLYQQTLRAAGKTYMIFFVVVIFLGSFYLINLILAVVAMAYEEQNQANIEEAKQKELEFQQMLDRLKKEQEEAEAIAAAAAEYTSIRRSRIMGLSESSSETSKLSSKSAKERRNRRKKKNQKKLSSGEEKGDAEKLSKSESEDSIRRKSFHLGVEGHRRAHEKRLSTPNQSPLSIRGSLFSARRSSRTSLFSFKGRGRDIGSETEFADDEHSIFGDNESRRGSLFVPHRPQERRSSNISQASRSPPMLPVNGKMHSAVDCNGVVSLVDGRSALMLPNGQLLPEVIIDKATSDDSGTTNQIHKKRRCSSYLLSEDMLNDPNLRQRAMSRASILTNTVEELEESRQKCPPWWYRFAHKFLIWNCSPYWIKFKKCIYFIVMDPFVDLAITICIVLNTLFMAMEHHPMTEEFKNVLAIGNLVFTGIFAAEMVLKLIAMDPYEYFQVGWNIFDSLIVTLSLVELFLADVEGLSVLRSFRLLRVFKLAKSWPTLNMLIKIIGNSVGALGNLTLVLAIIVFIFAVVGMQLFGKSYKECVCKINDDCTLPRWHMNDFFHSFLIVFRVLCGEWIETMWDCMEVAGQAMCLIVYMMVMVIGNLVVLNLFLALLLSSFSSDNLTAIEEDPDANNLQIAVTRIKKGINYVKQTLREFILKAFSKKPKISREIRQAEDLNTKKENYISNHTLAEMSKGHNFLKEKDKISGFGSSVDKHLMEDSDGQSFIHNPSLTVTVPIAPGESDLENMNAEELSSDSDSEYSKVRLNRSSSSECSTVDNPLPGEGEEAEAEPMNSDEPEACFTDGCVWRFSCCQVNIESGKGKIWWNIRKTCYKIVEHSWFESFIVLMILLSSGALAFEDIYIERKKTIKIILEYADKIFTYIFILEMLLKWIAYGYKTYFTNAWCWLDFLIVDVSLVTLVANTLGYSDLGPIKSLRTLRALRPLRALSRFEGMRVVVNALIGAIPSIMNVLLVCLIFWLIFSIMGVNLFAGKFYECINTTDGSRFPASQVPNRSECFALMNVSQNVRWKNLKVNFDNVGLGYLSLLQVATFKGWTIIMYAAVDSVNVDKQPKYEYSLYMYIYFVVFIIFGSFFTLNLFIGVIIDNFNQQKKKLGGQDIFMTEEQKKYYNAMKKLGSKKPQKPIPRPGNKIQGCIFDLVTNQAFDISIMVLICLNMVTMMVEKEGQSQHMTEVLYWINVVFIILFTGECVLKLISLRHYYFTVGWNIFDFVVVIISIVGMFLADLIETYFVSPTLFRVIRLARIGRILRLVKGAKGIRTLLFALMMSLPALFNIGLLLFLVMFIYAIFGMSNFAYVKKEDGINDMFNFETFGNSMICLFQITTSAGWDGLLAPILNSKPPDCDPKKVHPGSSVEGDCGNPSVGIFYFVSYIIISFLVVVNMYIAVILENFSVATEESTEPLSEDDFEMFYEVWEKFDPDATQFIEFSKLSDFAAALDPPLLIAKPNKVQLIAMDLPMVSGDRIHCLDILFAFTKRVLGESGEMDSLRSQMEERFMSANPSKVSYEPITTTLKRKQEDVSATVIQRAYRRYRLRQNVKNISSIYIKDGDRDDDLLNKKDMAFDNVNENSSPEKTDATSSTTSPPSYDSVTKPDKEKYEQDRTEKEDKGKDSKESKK
T1 sequence (Q9NY46 whole entry): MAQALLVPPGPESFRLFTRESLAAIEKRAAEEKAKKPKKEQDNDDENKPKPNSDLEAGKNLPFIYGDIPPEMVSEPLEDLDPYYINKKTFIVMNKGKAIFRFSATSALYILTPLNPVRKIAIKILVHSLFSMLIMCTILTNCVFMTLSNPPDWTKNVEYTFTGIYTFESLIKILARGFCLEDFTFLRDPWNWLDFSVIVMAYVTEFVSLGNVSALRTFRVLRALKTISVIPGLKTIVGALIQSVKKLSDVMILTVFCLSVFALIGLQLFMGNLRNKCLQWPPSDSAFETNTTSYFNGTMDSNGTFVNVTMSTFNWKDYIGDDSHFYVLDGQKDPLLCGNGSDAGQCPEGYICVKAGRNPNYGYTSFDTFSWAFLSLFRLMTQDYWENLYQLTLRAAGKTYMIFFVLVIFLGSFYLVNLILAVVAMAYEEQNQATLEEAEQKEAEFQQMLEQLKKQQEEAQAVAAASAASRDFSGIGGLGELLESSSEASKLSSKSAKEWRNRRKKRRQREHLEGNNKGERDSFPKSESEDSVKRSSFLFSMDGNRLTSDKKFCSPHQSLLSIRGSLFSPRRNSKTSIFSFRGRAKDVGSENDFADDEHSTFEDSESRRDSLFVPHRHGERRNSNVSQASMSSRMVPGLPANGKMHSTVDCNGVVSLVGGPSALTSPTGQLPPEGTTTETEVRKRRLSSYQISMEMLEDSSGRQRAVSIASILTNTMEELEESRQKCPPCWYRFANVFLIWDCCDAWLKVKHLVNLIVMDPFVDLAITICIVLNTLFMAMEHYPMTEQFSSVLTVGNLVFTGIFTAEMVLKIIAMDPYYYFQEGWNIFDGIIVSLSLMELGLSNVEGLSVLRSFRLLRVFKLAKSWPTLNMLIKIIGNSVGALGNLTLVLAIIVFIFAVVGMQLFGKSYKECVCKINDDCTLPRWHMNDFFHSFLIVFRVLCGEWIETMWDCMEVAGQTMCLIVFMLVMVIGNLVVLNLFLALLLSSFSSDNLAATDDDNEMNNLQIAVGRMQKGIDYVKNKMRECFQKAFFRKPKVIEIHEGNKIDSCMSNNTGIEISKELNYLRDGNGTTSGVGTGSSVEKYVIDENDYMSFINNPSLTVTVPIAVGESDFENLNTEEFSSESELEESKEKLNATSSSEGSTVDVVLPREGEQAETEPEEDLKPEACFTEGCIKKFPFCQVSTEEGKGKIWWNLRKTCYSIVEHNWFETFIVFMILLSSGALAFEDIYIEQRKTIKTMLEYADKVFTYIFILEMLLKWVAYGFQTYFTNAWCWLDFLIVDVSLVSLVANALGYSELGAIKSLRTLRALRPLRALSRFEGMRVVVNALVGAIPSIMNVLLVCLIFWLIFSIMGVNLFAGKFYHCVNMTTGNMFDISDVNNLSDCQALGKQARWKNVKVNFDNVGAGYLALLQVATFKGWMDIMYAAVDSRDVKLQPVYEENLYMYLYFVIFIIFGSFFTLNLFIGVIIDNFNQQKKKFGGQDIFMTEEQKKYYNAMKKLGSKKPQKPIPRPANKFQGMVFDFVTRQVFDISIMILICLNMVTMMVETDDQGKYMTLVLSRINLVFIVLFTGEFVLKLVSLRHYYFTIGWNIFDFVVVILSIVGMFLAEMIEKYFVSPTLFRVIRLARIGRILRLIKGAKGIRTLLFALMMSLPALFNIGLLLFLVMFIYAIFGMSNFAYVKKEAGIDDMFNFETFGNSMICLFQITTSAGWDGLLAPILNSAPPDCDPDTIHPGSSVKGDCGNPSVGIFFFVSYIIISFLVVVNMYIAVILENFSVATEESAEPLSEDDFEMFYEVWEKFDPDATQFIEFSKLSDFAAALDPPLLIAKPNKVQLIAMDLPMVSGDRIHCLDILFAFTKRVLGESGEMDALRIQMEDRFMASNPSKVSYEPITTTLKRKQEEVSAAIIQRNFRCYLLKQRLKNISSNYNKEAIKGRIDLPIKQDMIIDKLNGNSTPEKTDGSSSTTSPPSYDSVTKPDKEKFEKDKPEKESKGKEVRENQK

CC(=O)N[C@@H](C(=O)N1CCN(c2cccc(OC(F)(F)F)c2)CC1)c1ccccc1 [(R)-32, (R)-N-(2-Oxo-1-phenyl-2-(4-(3-(trifluoromethoxy)phenyl)piperazin-1-yl)ethyl)acetamide]
ED50 [1]: 26.5 mg/kg
nociceptive response, acute phase of the formalin test ([2]; 100 mg/kg i.p., 0–5 min after formalin): decreased the nociceptive response
nociceptive reaction, second phase of the formalin test ([2]; 25, 50 and 100 mg/kg i.p.): inhibited nociceptive reaction at all tested doses
ED50 ([2]; Mus musculus, ip, mice, i.p., phase II, read-out: ED50 in the late phase of the formalin test): 35.7 mg/kg
ED50 [3]: 20.2 mg/kg
averaged, maximal-normalized amplitude of voltage-gated sodium currents after application [4]: 0.61 ± 0.07
averaged, maximal-normalized amplitude of voltage-gated sodium currents after wash-out [4]: 0.72 ± 0.08
inhibition at 1 µM [5, 8]: -3.38%
inhibition at 1 µM [5, 9]: -7.33%
inhibition at 1 µM [5, 10]: 0.56%
inhibition at 10 µM [5, 8]: -3.18%
inhibition at 10 µM [5, 9]: -8.46%
inhibition at 10 µM [5, 10]: 2.11%
inhibition at 100 µM [5, 8]: 6.75%
inhibition at 100 µM [5, 9]: 5.68%
inhibition at 100 µM [5, 10]: 7.82%
inhibition at 1 µM [5, 11]: -2.78%
inhibition at 1 µM [5, 12]: -5.59%
inhibition at 1 µM [5, 13]: 0.03%
inhibition at 10 µM [5, 11]: 39.5%
inhibition at 10 µM [5, 12]: 42.1%
inhibition at 10 µM [5, 13]: 37%
inhibition at 100 µM [5, 11]: 99.1%
inhibition at 100 µM [5, 12]: 99.6%
inhibition at 100 µM [5, 13]: 98.6%
inhibition at 1 µM [6, 14]: -5.14%
inhibition at 1 µM [6, 15]: -8.4%
inhibition at 1 µM [6, 16]: -1.89%
inhibition at 10 µM [6, 14]: -10.8%
inhibition at 10 µM [6, 15]: -14.4%
inhibition at 10 µM [6, 16]: -7.25%
inhibition at 100 µM [6, 14]: -0.11%
inhibition at 100 µM [6, 15]: -1.89%
inhibition at 100 µM [6, 16]: 1.68%
inhibition at 1 µM [6, 17]: -4.59%
inhibition at 1 µM [6, 18]: -10.1%
inhibition at 1 µM [6, 19]: 0.93%
inhibition at 10 µM [6, 17]: 39.9%
inhibition at 10 µM [6, 18]: 53%
inhibition at 10 µM [6, 19]: 26.9%
inhibition at 100 µM [6, 17]: 108%
inhibition at 100 µM [6, 18]: 121%
inhibition at 100 µM [6, 19]: 95.2%
inhibition at 1 µM [7, 20]: -5.74%
inhibition at 1 µM [7, 21]: -4.13%
inhibition at 1 µM [7, 22]: -7.35%
inhibition at 10 µM [7, 20]: 6.15%
inhibition at 10 µM [7, 21]: -0.03%
inhibition at 10 µM [7, 22]: 12.3%
inhibition at 100 µM [7, 20]: 22.9%
inhibition at 100 µM [7, 21]: 19.2%
inhibition at 100 µM [7, 22]: 26.5%
inhibition at 1 µM [7, 23]: -3.08%
inhibition at 1 µM [7, 24]: -3.09%
inhibition at 1 µM [7, 25]: -3.07%
inhibition at 10 µM [7, 23]: 37.8%
inhibition at 10 µM [7, 24]: 35.3%
inhibition at 10 µM [7, 25]: 40.4%
inhibition at 100 µM [7, 23]: 98.4%
inhibition at 100 µM [7, 24]: 98.7%
inhibition at 100 µM [7, 25]: 98%

Reference: PMC11378297, “Discovery and Profiling of New Multimodal Phenylglycinamide Derivatives as Potent Antiseizure and Antinociceptive Drug Candidates” (ACS Chemical Neuroscience, 2024)
